Drawing on US11666577B2 (National Institute of Biological Sciences, Beijing, priority 2018, dated 2023), this text covers EC50 for 24 molecules.

The structures appear in SMILES notation. Like-named read-outs stand apart in the source and are kept apart here.

The subject of this experiment is HT-29 cells. Kind of experiment: Necroptosis assay (TNF-α/Smac mimetic/z-VAD, TSZ-induced) in HT-29 cells. The format is cell-based, human. As to the method:
Methods: HT-29 cells were cultured in McCoy's 5 A culture medium (Invitrogen). On day one, HT-29 cells were plated in 96-well assay plates at density of 2,500-3,500 cells per well. On day two, necrosis were induced by adding 20 ng/ml TNF-α (T), 100 nM Smac mimetic (S), and […] z-VAD (Z). At the same time, 10 mM compound from a chemical library of ˜200,000 compounds was delivered into each well. After 24 hrs treatment, cell viability was determined by measuring ATP level using the Cell Titer-Glo Luminescent Cell Viability Assay kit. A CellTiter-Glo Assay (Promega) was performed according to the manufacturer's instructions. Luminescence was recorded with a PerkinElmer EnSpire Multimode Plate Reader. Survived cells were normalized to those cells treated with DMSO. RIPA-56 was used as a positive control for screening necroptosis inhibitors. Data are represented as mean±standard deviation of duplicates.
In previous work, we performed a cell-based high-throughput screen to identify necroptosis inhibitors using a chemical library of ˜200,000 compounds and identified multiple compounds that protected human colorectal adenocarcinoma (HT-29) cells from TNF-α/Smac mimetic/Z-VAD-fmk (TSZ)-induced necroptosis.^[4]
The anti-necroptosis potency of compounds 7-12 and 14-18 was evaluated in the HT-29 cell line; the EC50 values are shown in Table B.
[a] Necroptosis was induced in HT-29 cells for 24 h; the EC50 values given here are the mean values of at least three independent analyses.

[1] abbreviates: Series 1 (Table 1) compounds 1-146, HT-29 cells, TNF-α/Smac mimetic/z-VAD, 24 hrs, cell viability by ATP level, read-out: Series 1 compound necroptosis activity.
[2] abbreviates: Homo sapiens, Series 2 (Table 2) compounds, HT-29 necroptosis assay, read-out: Series 2 compound necroptosis activity.
[3] abbreviates: Homo sapiens, Series 1 (Table 1) compounds 1-146, HT-29 cells, TNF-α/Smac mimetic/z-VAD, 24 hrs, cell viability by ATP level, read-out: Series 1 compound necroptosis activity.

Consider `CSc1nc2c(c(=O)n(C)c(=O)n2C)n1C` [Compound 2, 1,3,7-trimethyl-8-(methylthio)-1H-purine-2,6(3H,7H)-dione], for which the EC50 under setting [1] fell in the range of 1000 to 1e+06 nM.

Take `Cn1c(=O)c2c(nc([S+](C)[O-])n2C)n(C)c1=O` (stereo not drawn) [Compound 3, 1,3,7-trimethyl-8-(methylsulfinyl)-1H-purine-2,6(3H,7H)-dione]: the EC50 under setting [1] lay within 1000 to 1e+06 nM.

For the molecule `Cn1c(=O)c2c(nc(S(=O)(=O)CCCO)n2C)n(C)c1=O` [Compound 3], the EC50 under setting [2] was 100 to 10000 nM. With `Cn1c(=O)c2c(nc(S(C)(=O)=O)n2C)n(C)c1=O` [Compound 4, 1,3,7-trimethyl-8-(methylsulfonyl)-1H-purine-2,6(3H,7H)-dione], the EC50 under setting [3] lay within 1000 to 10000 nM. Take `CCSc1nc2c(c(=O)n(C)c(=O)n2C)n1C` [Compound 5, 8-(ethylthio)-1,3,7-trimethyl-1H-purine-2,6(3H,7H)-dione]: the EC50 under setting [1] lay within 1000 to 1e+06 nM.

In the case of `CC[S+]([O-])c1nc2c(c(=O)n(C)c(=O)n2C)n1C` (stereo not drawn) [Compound 6, 8-(ethylsulfinyl)-1,3,7-trimethyl-1H-purine-2,6(3H,7H)-dione], the EC50 under setting [1] lay within 1000 to 1e+06 nM.

Take `COCCn1c(S(C)(=O)=O)nc2c1c(=O)n(C)c(=O)n2C` [Compound 6]: the EC50 under setting [2] fell in the range of 10000 to 100000 nM. As for `CCS(=O)(=O)c1nc2c(c(=O)n(C)c(=O)n2C)n1C` [Compound 7, 8-(ethylsulfonyl)-1,3,7-trimethyl-1H-purine-2,6(3H,7H)-dione], the EC50 under setting [3] fell in the range of 1000 to 100000 nM.

Take `Cn1c(=O)c2c(nc([S+](C)[O-])n2C)n(CC#Cc2cccc(O)c2)c1=O` (stereo not drawn) [Compound 8]: the EC50 under setting [2] was 1 to 100 nM. Turning to `CCC[S+]([O-])c1nc2c(c(=O)n(C)c(=O)n2C)n1C` (stereo not drawn) [Compound 9, 1,3,7-trimethyl-8-(propylsulfinyl)-1H-purine-2,6(3H,7H)-dione], under setting [1], the EC50 is 1000 to 1e+06 nM. For the molecule `CCCS(=O)(=O)c1nc2c(c(=O)n(C)c(=O)n2C)n1C` [Compound 10, 1,3,7-trimethyl-8-(propylsulfonyl)-1H-purine-2,6(3H,7H)-dione], the EC50 under setting [3] is 1000 to 100000 nM. Turning to `Cn1c(=O)c2c(nc(S(C)(=O)=O)n2C)n(CC#Cc2cccc(NC(=O)c3ccccc3)c2)c1=O` [Compound 11], under setting [2], the EC50 is 1 to 100 nM.

As for `C#CCn1c(=O)n(C)c(=O)c2c1nc(S(C)(=O)=O)n2C` [Compound 12], where the note is “Homo sapiens, HT-29, 24 h, read-out: EC50 (nM), potency in TSZ-induced necroptosis assays in HT-29 cells”, the EC50 stood at 152 ± 23 nM. On to `COCCOCCNc1cccc(C#CCn2c(=O)n(C)c(=O)c3c2nc(S(C)(=O)=O)n3C)c1` [Compound 12], for which, under setting [2], the EC50 was in the range of 1 to 100 nM. Take `Cn1c(=O)c2c(nc(S(=O)(=O)CC3CC3)n2C)n(C)c1=O` [Compound 13, 8-(cyclopropylmethylsulfonyl)-1,3,7-trimethyl-1H-purine-2,6(3H,7H)-dione]: the EC50 under setting [3] was 1000 to 100000 nM. For `Cn1c(=O)c2c(nc(S(C)(=O)=O)n2C)n(CC#Cc2cccc(NCc3ccccc3)c2)c1=O` [Compound 13], under setting [2], the EC50 fell in the range of 1 to 100 nM.

`Cn1c(=O)c2c(nc(S(C)(=O)=O)n2C)n(CC#Cc2cccc(NCCN3CCOCC3)c2)c1=O` [Compound 14]: under setting [2], the EC50 was in the range of 1 to 100 nM. In the case of `CCCCCNc1cccc(C#CCn2c(=O)n(C)c(=O)c3c2nc(S(C)(=O)=O)n3C)c1` [Compound 16], under setting [2], the EC50 lay in the range of 100 to 10000 nM. For the molecule `Cn1c(=O)c2c(nc(S(C)(=O)=O)n2C)n(CC#Cc2cccc(NC(=O)CN3CCOCC3)c2)c1=O` [Compound 17], the EC50 under setting [2] lay in the range of 1 to 100 nM. `CC(C)S(=O)(=O)c1nc2c(c(=O)n(C)c(=O)n2C)n1C` [Compound 18]: the EC50 under setting [3] is 1000 to 100000 nM. Turning to `Cn1c(=O)c2c(nc(S(C)(=O)=O)n2C)n(CC#Cc2cccc(NCCN3CCCCC3)c2)c1=O` [Compound 18], the EC50 under setting [2] lay within 100 to 10000 nM. In the case of `Cn1c(=O)c2c(nc(S(=O)(=O)CC3CC3)n2C)n(CC#Cc2cccc(NCCN3CCOCC3)c2)c1=O` [Compound 19], the EC50 under setting [2] fell in the range of 1 to 100 nM.

As to `Cn1c(=O)c2c(nc(S(=O)(=O)c3ccccc3)n2C)n(C)c1=O` [Compound 20, 1,3,7-trimethyl-8-(phenylsulfonyl)-1H-purine-2,6(3H,7H)-dione], the EC50 under setting [1] is 1000 to 1e+06 nM. In the case of `Cn1c(=O)c2c(nc(S(C)(=O)=O)n2C)n(CC#Cc2cc(F)cc(NC(=O)CN3CCOCC3)c2)c1=O` [Compound 20], the EC50 under setting [2] lay within 1 to 100 nM.
